Assay results reported in patent US20150283127A1, “SAQUINAVIR-NO FOR IMMUNOMODULATION” (ONCONOX APS, priority 2012, published 2015).

Tests used:
HIV = conditions: cited from earlier work
rat LNC = assay: Cytokine generation (ELISA) in ConA-stimulated rat LNC; type: cell-based; conditions: 24 hours, vs untreated control cells
Excerpt: Experimental animals (C57BL/6 mice, BALB/c mice and Dark Agouti rats) were obtained from the Animal House Facility of the Institute for Biological Research “Sinisa Stanković”, Belgrade, Serbia. Spleen cells (SPC) were isolated from murine spleens and lymph node cells (LNC) were obtained from rat cervical lymph nodes of untreated animals. Draining lymph node cells (DLNC) were obtained from popliteal lymph nodes 8-10 days after immunization of rats with myelin basic protein (guinea pig MBP, kind gift from professor Alexander Fluegel, University of Goettingen, Germany) and complete Freund's adjuvant (CFA, Difco, Detroit, Mich.). […] Obtained purity of CD4 population was more than 97% as determined by flow cytometry. […]
Cytokine concentration in cell culture supernatants was determined by sandwich ELISA using MaxiSorp plates (Nunc, Rochild, Denmark) and anti-cytokine paired antibodies according to the manufacturer's instructions. Samples were analyzed in duplicate for murine/rat IL-17, murine IL-10, murine TNF, murine IL-4 (eBioscience), murine IFN-γ, rat IFN-γ, rat IL-4 (R&D, Minneapolis, Minn.), rat IL-10 and rat TNF (BD Biosciences). The results were calculated using standard curves made on the basis of known concentrations of the appropriate recombinant cytokines. […]

[1] = test system: experimental autoimmune uveoretinitis (EAU); assay: Experimental autoimmune uveoretinitis (EAU) in the Wistar rat, histology; type: in vivo
Description: Female Wistar Rats n=28 (8 weeks-old) were purchased from Pasteur Institute (Algiers, Algeria). These rats were acclimated to their new environment for one week before the start of experiments and kept under normal conditions with a 12 h dark/light cycle and free access to food and water.
These animals were divided into four groups:
Control group (n=6) it consisted in non treated animals
Vehicle group (n=6) received a daily intraperitoneal injection of DMSO at 20% starting from the day of immunization.
Retinal crude extract immunized rats (referred to as EAU group n=8) received a single subcutaneous injection of 200 μL with Retinal Crude Extract emulsified in complete Freund's adjuvant; CFA (v/v) and were left untreated.
SaqNO (reference) treated rats (n=8) they received a daily intraperitoneal injection of SaqNO at 10 μg/kg starting from the day of immunization.
Fresh bovine eyes (n=20) were used in the experiments. They were cut just in posterior to the ora serrata, the vitreous was then removed without causing retinal detachment. The retinas were removed carefully and put in PBS, pH 7.4. They were then subjected to three successive thermal shock (−20° C. and +37°) in order to release retinal antigens. The retinal crude extract was obtained after a centrifugation at 4000 rpm for 15 min and conserved at −20° C. until further utilization.
[…]. In parallel, all rats from each group were also sacrificed.
For histopathological analysis, eyes were enucleated from each group and fixed in 10% phosphate-buffered formaldehyde. Tissue sections of 5 μm thickness were stained with hematoxylin and eosin (H&E). Sections were examined using a standard microscope (Zeiss) and pictures were taken using a digital camera at ×40 resolution Histological criteria were based on the degree of architectural changes. The histological scores were assessed semi-quantitatively by microscopic examination as follows:
No morphological changes, 0; minimal morphological changes of the outer nuclear layer (ONL) in retina, 1; atrophy of INL, 2; disappearance of INL, 3; and damage of total retinal layers, 4.

DLNC = assay: Viability of rat DLNC (MTT); type: cell-based; conditions: DLNC restimulated with MBP
Excerpt: Experimental animals (C57BL/6 mice, BALB/c mice and Dark Agouti rats) were obtained from the Animal House Facility of the Institute for Biological Research “Sinisa Stanković”, Belgrade, Serbia. Spleen cells (SPC) were isolated from murine spleens and lymph node cells (LNC) were obtained from rat cervical lymph nodes of untreated animals. Draining lymph node cells (DLNC) were obtained from popliteal lymph nodes 8-10 days after immunization of rats with myelin basic protein (guinea pig MBP, kind gift from professor Alexander Fluegel, University of Goettingen, Germany) and complete Freund's adjuvant (CFA, Difco, Detroit, Mich.). The organs were mechanically disrupted, passed through 40-μm nylon mesh filter and the resulting suspension was collected by centrifugation. […] Obtained purity of CD4 population was more than 97% as determined by flow cytometry. […]
In order to assess the viability of SPC, LNC, DLNC and SCC by mitochondrial activity assay we used the mitochondrial-dependent reduction of 3-(4,5-dimethylthiazol-2-yl)-2,5-[…] bromide (MTT) to formazan. […] The absorbances in MTT assay were measured at […], with a correction at 690 nm, using an automated microplate reader (LKB 5060-006, LKB, Vienna, Austria).
Next, we determined the influence of Saq-NO on encephalitogen-specific generation of IFN-g and IL-17. […]

human PBMC = conditions: PMA plus ionomycin, cited from earlier work

What does the source list for CC(C)(C)NC(=O)C1C[C@@H]2CCCC[C@@H]2CN1CC(O[N+](=O)[O-])[C@H](Cc1ccccc1)NC(=O)C(CC(N)=O)NC(=O)c1ccc2ccccc2n1 (stereo partly drawn) [Saq-NO, nitric ester of Saquinavir]?
Anti-HIV potency relative to parental drug (HIV): retained; Release of the examined cytokines IFN-g, IL-17, IL-10 and TNF (rat LNC): dose-dependently inhibited; Uveitis clinical score ([1]; 10 μg/kg daily, P<0.05): improved significantly; Histological structure of retinal tissue ([1]; 10 μg/kg i.p. daily from immunization, day 14): ameliorated significantly; Histopathological scores ([1]; 10 μg/kg, P<0.05): ameliorated; Development of EAU ([1]; prophylactic treatment): prevents development of EAU; DLNC viability (DLNC): much less than its influence on IFN-g and IL-17 production

Which TNF-alpha synthesis (human PBMC; 10 to 20 μM) does the source give for CC(C)(C)NC(=O)[C@@H]1C[C@@H]2CCCC[C@@H]2CN1C[C@@H](O)[C@H](Cc1ccccc1)NC(=O)[C@H](CC(N)=O)NC(=O)c1ccc2ccccc2n1 [Saq, (2S)—N-[(2S,3R)-4-[(3S)-3-(tert-butylcarbamoyl)-decahydroisoquinolin-2-iy]-3-hydroxy-1-phenylbutan-2-il]-2-(quinolin-2-ylformamido)butanediamide, reference compound] here?
Its TNF-alpha synthesis is “without influencing”.

And the “Synthesis of IL-2 and IFN-gamma production” value (human PBMC; concentration between 10 and 20 μM)?
Its value is “downregulate”.
